These results are taken from publication PMC12691742, “Anti-Cancer Outcome of Glucocorticoid Receptor Transrepression by Synephrine Derivatives in Hematological Malignancies” (International Journal of Molecular Sciences, 2025).

Entries after “also recorded” stand apart in the source; their conditions may differ.

The subject of data set [1] is DDIT4 expression in K562 cells. Nature of the data set: Q-PCR of DDIT4 in K562 cells. Type of data set: cell-based. To be noted: 24 h, 8S-E3 25 µM. An excerpt:
(§1) Q-PCR results were confirmed by Western blot analysis of the level of GR phosphorylated by Ser211, known as a crucial protein modification for GR TA realization because of its binding to short cysteine-rich fragments of the coactivator CREB-binding protein [41].
(§2) Figure 3 Effects of synephrine derivatives on GR transactivation in Granta lymphoma and K562 leukemia cells. (A) Q-PCR analysis of FKBP51, GILZ, and DDIT4 mRNA expression in K562 and Granta cells. […] The Q-PCR results were normalized to the expression of the housekeeping gene RPL27 and are presented as fold changes compared to the control. The mean ± SD was calculated for three individual samples/condition (n = 3). Statistically significant differences compared to the control: * p < 0.05, ** p < 0.01. (B) The levels of the nuclear fraction of phospho-GR (Ser211) were determined using Western blot analysis (n = 3; characteristic images are presented in the figure). Histone H3 was used as a loading control.
(§3) Total RNA isolation from cell cultures and murine bones, reverse transcription, and Q-PCR were performed as described in [36]. Primers were designed using NCBI Primer-BLAST https://www.ncbi.nlm.nih.gov/tools/primer-blast/, accessed on 25 August 2025 (Supplementary Table S1). Results were normalized to the expression of the housekeeping RPL27 и Rpl27 genes. The experiments were performed in triplicate.

Data set [2] concerns DDIT4 expression in Granta cells. In words: Q-PCR of DDIT4 in Granta cells. Type of data set: cell-based. Conditions: 24 h, 8S-E3 25 µM.
Text: as §1, §2, §3

In data set [3] the test system is GR phosphorylated by Ser211 in K562 and Granta cells. Nature of the data set: Western blot of nuclear phospho-GR (Ser211). The format is cell-based. Conditions: 10 h; Dex 10 µM, 4S-C2 50 µM, 8S-E3 50 µM, 10S-E2 15 µM, 13S-G2 25 µM. How it is done: as §2
Western blot analysis was performed as previously described. Proteins were resolved using SDS-PAGE. Membranes were blocked with 5% nonfat milk solution and then incubated with primary antibodies against phosphorylated GR (pGR, Ser211) (“Santa Cruz Biotechnology”, Santa Cruz, CA, USA) overnight at 4 °C. To verify equal protein loading and adequate transfer, the membranes were probed with Histone H3 antibodies (“Cell Signaling”, Boston, MA, USA). Goat anti-rabbit IgGs (“Jackson Immuno Research”, West Grove, PA, USA) were used as secondary antibodies. Signals were detected using ECL reagent and an ImageQuant LAS4000 system (“GE HealthCare”, Chicago, IL, USA). ImageJ 1.54h software was used for densitometry. The experiments were performed in triplicate.
7 K562, pGR nuclear 5 Granta, pGR nuclear
Supplementary Figure S 22. Quantification of Western blot analysis. K562 and Granta cells […]
μM) and 13S-G2 (25 μ M) for 10 h. Quantification of Western blot anal ysis of p- GR protein levels was done usin g Im a ge J f ree so ftwar e. Statisticall y significant diff eren ces as compared to control: […]

Data set [4] deals with leukemia and lymphoma cells (Granta, K562). Also on record: method as in PMID 39858397. Conditions: leukemia and lymphoma cells; read-out: cell viability IC50; cited from earlier work.
For another data set, the target named is T1, GR (Homo sapiens, UniProt P04150).
T1 construct: endogenous in cells; host or cells: K562
T1 sequence (P04150 1-777): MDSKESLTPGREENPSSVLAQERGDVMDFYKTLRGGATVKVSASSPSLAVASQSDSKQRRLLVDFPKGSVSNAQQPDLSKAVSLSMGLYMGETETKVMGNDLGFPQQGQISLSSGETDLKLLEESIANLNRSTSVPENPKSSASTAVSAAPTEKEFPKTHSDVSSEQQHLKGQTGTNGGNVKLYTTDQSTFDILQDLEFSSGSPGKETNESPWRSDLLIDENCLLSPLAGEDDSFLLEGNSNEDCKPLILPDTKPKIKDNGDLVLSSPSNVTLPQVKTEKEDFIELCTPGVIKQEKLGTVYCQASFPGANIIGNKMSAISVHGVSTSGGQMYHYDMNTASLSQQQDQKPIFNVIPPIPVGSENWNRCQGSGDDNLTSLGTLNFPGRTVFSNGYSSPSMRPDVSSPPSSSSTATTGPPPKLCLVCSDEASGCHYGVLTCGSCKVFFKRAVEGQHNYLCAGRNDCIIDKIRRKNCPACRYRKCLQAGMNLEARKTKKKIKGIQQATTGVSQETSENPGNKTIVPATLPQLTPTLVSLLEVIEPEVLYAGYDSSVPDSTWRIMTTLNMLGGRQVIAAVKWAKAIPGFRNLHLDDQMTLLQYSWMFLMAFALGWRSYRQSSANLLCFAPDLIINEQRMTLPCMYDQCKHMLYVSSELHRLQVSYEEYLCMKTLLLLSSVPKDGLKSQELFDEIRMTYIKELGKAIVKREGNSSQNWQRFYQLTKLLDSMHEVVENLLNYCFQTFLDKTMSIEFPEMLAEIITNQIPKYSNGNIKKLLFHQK
Nature of the data set: GR radioligand binding assay, competition with [3H]Dex in K562 cells. How it is done: (A,B). […] The stability of the complex was simulated using molecular dynamics in the GROMACS program. (C) GR binding affinity was estimated using a radioligand binding assay. […] Cell lysate radioactivity was measured using a RackBeta 1215 LC (LKB Wallac, Turku, Finland) spectrometer for 4 min. […] The experiments were performed in triplicate (n = 3).
After 90 min of incubation, the cells were washed twice by centrifugation in cold serum-free medium (1500 rpm, 5 min). The cells were then lysed with RIPA buffer (50 mM Tris (pH 8.0), 150 mM NaCl, 1 mM ethylenediaminetetraacetic acid, 0.1% sodium dodecyl sulfate, 0.5% sodium deoxycholate, 1% triton-X100, 10% glycerin, and protease inhibitor) for 20 min. Lysates were transferred to scintillation liquid, and radioactivity was measured using a RackBeta 1215 LC spectrometer for 4 min. […] IC50 was determined using GraphPad Prism software, Ver.7.0. […] “Top” meant the highest value in dpm and was equal to 100%, while the “bottom” was considered as the lowest value (0%). […] The IC50 values for each ligand were determined by plotting these curves. The experiments were performed in triplicate.

The subject of the next data set is Granta cells. Nature of the data set: Cell cycle analysis by PI flow cytometry in Granta cells. Type of data set: cell-based. To be noted: 24 h, Dex 50 µM, 4S-C2 25 µM, 8S-E3 12.5 µM, 10S-E2 6.25 µM, 13S-G2 1 µM. How it is done:
(§4) Figure 5 Pro-apoptotic and anti-cancer effects of synephrine derivatives in vitro and in vivo. (A) Effect of 4S-C2, 8S-E3, 10S-E2, and 13S-G2 on cell cycle progression in K562 and Granta cells after 24 h of incubation. The cells were fixed with ethanol, stained with propidium iodide, and analyzed using flow cytometry. Statistically significant difference compared to control: *—p < 0.05, **—p < 0.01 (n = 3). (B) In vivo anti-cancer activity was evaluated using the transplantable P388 murine lymphoma model. […] Tumor nodule size was measured twice a week using digital calipers. Statistically significant differences compared to the control: * p < 0.05, ** p < 0.01.
The distribution of cells by cell cycle phases was evaluated using propidium iodide (PI) staining, as described in [19]. […] After incubation, the cells were resuspended in 70% ethanol and fixed for 2h at 4 °C. Cells were then washed twice with cold PBS, pH 7.4, and stained with 500 µL of cold propidium iodide (PI) solution (50 µg/mL PI, 1% Triton X-100, and 100 µg/mL RNase A in PBS). The cell cycle distribution of cells in samples was analyzed using an FACSCalibur Flow Cytometer (“BD Biosciences”, San Jose, CA, USA). The experiments were performed in triplicate.

Another data set has as its system BALB/c female mice. In words: Glucocorticoid-induced osteoporosis model: bone and skin morphometry, body weight. The format is in vivo. Conditions: Dex 20 mg/kg. An excerpt:
(§5) (A) H&E bone staining and quantification of cortical bone thickness. (B) Q-PCR analysis of Rankl, Mmp9, Tsc2, Trap, and Bglap mRNA expression in bone tissue. […] (C) H&E skin staining and quantification of dermal adipose thickness (50 images per treatment group of 10 animals). Statistically significant differences compared to the control: * p < 0.05, ** p < 0.01.
(§6) The protocol for the experiment was approved by the local N.N. Blokhin National Medical Research Center Ethics Committee and corresponded to the guidelines for the welfare and use of animals in cancer research adopted by The United Kingdom Coordinating Committee on Cancer Prevention Research. […] Body weight was recorded twice a week for toxicity control.
Bone and skin samples from the GIOP experiment were fixed in formaldehyde and embedded in paraffin, and sections were stained with hematoxylin and eosin. After formaldehyde fixation, the bone samples were decalcified in decalcification buffer (0.5 M EDTA, 0.7 mM NaOH, pH7.0) for 14 days, washed twice with PBS, and further processed according to the standard histology protocol. The dermal adipose and bone thickness were quantified in sections stained with hematoxylin and eosin. At least five individual fields per slide of each sample/treatment (at least 50 images/treatment group) were analyzed using Axioplan2 microscope software (“Carl Zeiss”, Jena, Germany). The dermal adipose or bone thickness in treated animals is presented as a percentage of the control animals.

In data set [5] the test system is Rankl, Mmp9, Tsc2, Trap, Bglap mRNA expression in bone tissue. In words: Glucocorticoid-induced osteoporosis model: Q-PCR of marker genes in bone tissue. The format is in vivo, mice. Conditions: 5 weeks, Dex 20 mg/kg. How it is done: as §5
Total RNA isolation from cell cultures and murine bones, reverse transcription, and Q-PCR were performed as described in [36]. […] Results were normalized to the expression of the housekeeping RPL27 и Rpl27 genes. The experiments were performed in triplicate.
as §6

For data set [6], the system named is FKBP51, GILZ, DDIT4 mRNA expression in K562 and Granta cells. Nature of the data set: Q-PCR of GR transactivation marker genes. Conditions: 4 h (FKBP51, GILZ) or 24 h (DDIT4); Dex 10 µM, 10S-E2 0.1 µM; vs control. Type of data set: cell-based.
Text: as §1, §2, §3

The subject of the next data set is P388 murine lymphoma. Nature of the data set: Transplantable P388 murine lymphoma model. The format is in vivo, mice. Conditions: Dex 1 mg/kg. How it is done:
as §4
The protocol for the experiment was approved by the local N.N. Blokhin National Medical Research Center Ethics Committee and corresponded to the guidelines for the welfare and use of animals in cancer research adopted by The United Kingdom Coordinating Committee on Cancer Prevention Research. P388 cells were injected i.p. into 5-week-old female DBA/2 mice (“Stolbovaya Farm”, Stolbovaya, Russia). After 15 days, the cells were collected from the peritoneum, washed, and resuspended in PBS. For the experiments, 0.1 mL containing 2 million cells obtained from the ascites was inoculated s.c. in 5-week-old female BDF1 mice (“Stolbovaya Farm”, Stolbovaya, Russia). […] Body weight was recorded twice a week for toxicity determination. Tumor size was measured three times per week using digital calipers.

[7] abbreviates: i.p. every 24 h for 5 weeks, 10S-E2 10 mg/kg.

`OCCNCC(O)c1ccc(OCc2ccccc2)cc1` (stereo not drawn) [8S-E3, 1-(4-(benzyloxy)phenyl)-2-((2-hydroxyethyl)amino)ethanol]: the DDIT4 expression result in data set [1] was “strongly attenuated DDIT4 expression by more than three times”. Also, the “decrease in DDIT4 expression” value in data set [2] is 1,5 fold. Also, the “GR phosphorylation level at Ser211” value in data set [3] is listed as “weak increase”. In addition, the values for the IC50 (in data set [4]; on GR) were 80 to 120 µM and 0.08 µM, respectively.

With `C[C@@H]1C[C@H]2[C@@H]3CCC4=CC(=O)C=C[C@]4(C)[C@@]3(F)[C@@H](O)C[C@]2(C)[C@@]1(O)C(=O)CO` [Dex, dexamethasone, reference compound], the “level of apoptosis (sub-G1-phase cell population)” value in the data set on Granta cells was “higher than that in the control samples”. Also, the “animal body weight vs control” value in the data set with BALB/c female mice (GIOP study, 10S-E2 10 mg/kg i.p. every 24 h for 5 weeks) is “no statisticall y si gnificant differences; also recorded: similar”. Further, in the data set on BALB/c female mice (setting [7]), the “loss of cortical bone thickness” value is 30% and the “reduction of dermal adipose tissue / skin atrophy” value is given as “approximately 70%”. In addition, the “GR phosphorylation level at Ser211” value in data set [3] was “weak increase”. Moreover, the “Bglap mRNA expression in bone tissue” value in [5] is “Downregulation”. Further, in data set [5] (10S-E2 10 mg/kg), the “Mmp9 mRNA expression in bone tissue” value was “tendency toward Mmp9 and Tsc2 upregulation”; the “Rankl mRNA expression in bone tissue” value was “upregulation”; the “Trap mRNA expression in bone tissue” value is reported as “upregulation”; the “Tsc2 mRNA expression in bone tissue” value is “tendency toward Mmp9 and Tsc2 upregulation”. Besides, the “expression of TA marker genes FKBP51, GILZ, DDIT4” value in [6] is reported as 5-30 fold. Further, the “animal body weight change vs control” value with P388 murine lymphoma (P388 model, 10S-E2 10 mg/kg i.p. 3 times per week) was “no statisticall y si gnificant differences”. Moreover, the “inhibition of tumor growth” value in the data set on P388 murine lymphoma (s.c. P388 in BDF1 mice, i.p. 3 times per week, 10S-E2 10 mg/kg) is recorded as 60–70%.
